According to patent US12421211B2, “Heterocyclic compounds” (Hoffmann-La Roche Inc., priority 2021, dated 2025):
Structures can show the parent of a compound that is named as a salt.

tested on: Acinetobacter baumannii ATCC17961; experiment: Antimicrobial susceptibility testing: 90% growth inhibitory concentration (IC90) determination; type: cell-based; settings: Acinetobacter baumannii, ATCC17961, 16 h, 90% growth inhibitory concentration, Acinetobacter baumannii ATCC17961, Iso-Sensitest broth, OD 600 nm over 16 h; read-out: ATCC 17961 IC90
Method in brief: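 A. baumannii ATCC17961 at ~5×10^5 CFU/ml in Iso-Sensitest broth exposed to 10-point twofold dilutions (e.g. 50–0.097 μM final), 35±2° C. OD600 read every 20 minutes over 16h; IC50 and IC90 derived from inhibition during logarithmic growth.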

IC90 [nM] | Structure (SMILES)
720 | Cc1nn(CC(=O)Nc2ccncc2)cc1-c1ccc(-c2cnc(C(=O)Nc3ccc(C(=O)N4CCN(C(=O)C5CC[N+](C)(C)CC5)CC4)c(Cl)c3)n2C)c(F)c1F [Example G17, N-[3-chloro-4-[4-(1,1-dimethylpiperidin-1-ium-4-carbonyl)piperazine-1-carbonyl]phenyl]-5-[2,3-difluoro-4-[3-methyl-1-[2-oxo-2-(4-pyridylamino)ethyl]pyrazol-4-yl]phenyl]-1-methyl-imidazole-2-carboxamide; chloride]
510 | Cc1c(-c2ccc(-c3cnc(C(=O)Nc4ccc(C(=O)N5CCN(C(=O)C6CC[N+](C)(C)CC6)CC5)c(Cl)c4)n3C)c(F)c2F)cnn1CC(=O)NC(C)(C)C [Example G18, 5-[4-[1-[2-(tert-butylamino)-2-oxo-ethyl]-5-methyl-pyrazol-4-yl]-2,3-difluoro-phenyl]-N-[3-chloro-4-[4-(1,1-dimethylpiperidin-1-ium-4-carbonyl)piperazine-1-carbonyl]phenyl]-1-methyl-imidazole-2-carboxamide; formate]
670 | Cc1nn(CC(=O)NC2CCCOC2)cc1-c1ccc(-c2cnc(C(=O)Nc3ccc(C(=O)N4CCN(C(=O)C5CC[N+](C)(C)CC5)CC4)c(Cl)c3)n2C)c(F)c1F (stereo not drawn) [Example G22, N-[3-chloro-4-[4-(1,1-dimethylpiperidin-1-ium-4-carbonyl)piperazine-1-carbonyl]phenyl]-5-[2,3-difluoro-4-[3-methyl-1-[2-oxo-2-(tetrahydropyran-3-ylamino)ethyl]pyrazol-4-yl]phenyl]-1-methyl-imidazole-2-carboxamide; formate]
270 | Cc1nn(CC(=O)Nc2cccnn2)cc1-c1ccc(-c2cnc(C(=O)Nc3ccc(C(=O)N4CCN(C(=O)C5CC[N+](C)(C)CC5)CC4)c(Cl)c3)n2C)c(F)c1F [Example G23, N-[3-chloro-4-[4-(1,1-dimethylpiperidin-1-ium-4-carbonyl)piperazine-1-carbonyl]phenyl]-5-[2,3-difluoro-4-[3-methyl-1-[2-oxo-2-(pyridazin-3-ylamino)ethyl]pyrazol-4-yl]phenyl]-1-methyl-imidazole-2-carboxamide; formate]
1000 | Cc1c(-c2ccc(-c3cnc(C(=O)Nc4ccc(C(=O)N5CCN(C(=O)C6CC[N+](C)(C)CC6)CC5)c(Cl)c4)n3C)c(F)c2F)cnn1CC(=O)Nc1cccnn1 [Example G25, N-[3-chloro-4-[4-(1,1-dimethylpiperidin-1-ium-4-carbonyl)piperazine-1-carbonyl]phenyl]-5-[2,3-difluoro-4-[5-methyl-1-[2-oxo-2-(pyridazin-3-ylamino)ethyl]pyrazol-4-yl]phenyl]-1-methyl-imidazole-2-carboxamide; formate]
100 | Cc1nn(CC(=O)NC2CCC(F)(F)CC2)cc1-c1ccc(-c2cnc(C(=O)Nc3ccc(C(=O)N4CCN(C(=O)C5CC[N+](C)(C)CC5)CC4)c(Cl)c3)n2C)c(F)c1F [Example G26, N-[3-chloro-4-[4-(1,1-dimethylpiperidin-1-ium-4-carbonyl)piperazine-1-carbonyl]phenyl]-5-[4-[1-[2-[(4,4-difluorocyclohexyl)amino]-2-oxo-ethyl]-3-methyl-pyrazol-4-yl]-2,3-difluoro-phenyl]-1-methyl-imidazole-2-carboxamide; formate]
120 | Cc1nn(CC(=O)Nc2cccnc2)cc1-c1ccc(-c2cnc(C(=O)Nc3ccc(C(=O)N4CCN(C(=O)C5CC[N+](C)(C)CC5)CC4)c(Cl)c3)n2C)c(F)c1F [Example G27, N-[3-chloro-4-[4-(1,1-dimethylpiperidin-1-ium-4-carbonyl)piperazine-1-carbonyl]phenyl]-5-[2,3-difluoro-4-[3-pyridylamino)ethyl] pyrazol-4-yl]phenyl]-1-methyl-imidazole-2-carboxamide; formate]
88 | COc1ccc(NC(=O)Cn2cc(-c3ccc(-c4cnc(C(=O)Nc5ccc(C(=O)N6CCN(C(=O)C7CC[N+](C)(C)CC7)CC6)c(Cl)c5)n4C)c(F)c3F)c(C)n2)nc1 [Example G28, N-[3-chloro-4-[4-(1,1-dimethylpiperidin-1-ium-4-carbonyl)piperazine-1-carbonyl]phenyl]-5-[2,3-difluoro-4-[1-[2-[(5-methoxy-2-pyridyl)amino]-2-oxo-ethyl]-3-methyl-pyrazol-4-yl]phenyl]-1-methyl-imidazole-2-carboxamide; formate]

Second part, the compound before the results:

Structure (SMILES) | IC90 [nM]
COc1ccccc1NC(=O)Cn1cc(-c2ccc(-c3cnc(C(=O)Nc4ccc(C(=O)N5CCN(C(=O)C6CC[N+](C)(C)CC6)CC5)c(Cl)c4)n3C)c(F)c2F)c(C)n1 [Example G7, N-[3-chloro-4-[4-(1,1-dimethylpiperidin-1-ium-4-carbonyl)piperazine-1-carbonyl]phenyl]-5-[2,3-difluoro-4-[1-[2-(2-methoxyanilino)-2-oxo-ethyl]-3-methyl-pyrazol-4-yl]phenyl]-1-methyl-imidazole-2-carboxamide; formate] | 550
Cc1nn(CC(=O)Nc2ccc(F)cc2)cc1-c1ccc(-c2cnc(C(=O)Nc3ccc(C(=O)N4CCN(C(=O)C5CC[N+](C)(C)CC5)CC4)c(Cl)c3)n2C)c(F)c1F [Example G8, N-[3-chloro-4-[4-(1,1-dimethylpiperidin-1-ium-4-carbonyl)piperazine-1-carbonyl]phenyl]-5-[2,3-difluoro-4-[1-[2-(4-fluoroanilino)-2-oxo-ethyl]-3-methyl-pyrazol-4-yl]phenyl]-1-methyl-imidazole-2-carboxamide; formate] | 84
Cc1nn(CC(=O)NC2CCCCC2)cc1-c1ccc(-c2cnc(C(=O)Nc3ccc(C(=O)N4CCN(C(=O)C5CC[N+](C)(C)CC5)CC4)c(Cl)c3)n2C)c(F)c1F [Example G9, N-[3-chloro-4-[4-(1,1-dimethylpiperidin-1-ium-4-carbonyl)piperazine-1-carbonyl]phenyl]-5-[4-[1-[2-(cyclohexylamino)-2-oxo-ethyl]-3-methyl-pyrazol-4-yl]-2,3-difluoro-phenyl]-1-methyl-imidazole-2-carboxamide; formate] | 210
Cc1nn(CC(=O)Nc2nccs2)cc1-c1ccc(-c2cnc(C(=O)Nc3ccc(C(=O)N4CCN(C(=O)C5CC[N+](C)(C)CC5)CC4)c(Cl)c3)n2C)c(F)c1F [Example G10, N-[3-chloro-4-[4-(1,1-dimethylpiperidin-1-ium-4-carbonyl)piperazine-1-carbonyl]phenyl]-5-[2,3-difluoro-4-[3-methyl-1-[2-oxo-2-(thiazol-2-ylamino)ethyl]pyrazol-4-yl]phenyl]-1-methyl-imidazole-2-carboxamide; formate] | 120
Cc1nn(CC(=O)Nc2cn[nH]c2)cc1-c1ccc(-c2cnc(C(=O)Nc3ccc(C(=O)N4CCN(C(=O)C5CC[N+](C)(C)CC5)CC4)c(Cl)c3)n2C)c(F)c1F [Example G11, N-[3-chloro-4-[4-(1,1-dimethylpiperidin-1-ium-4-carbonyl)piperazine-1-carbonyl]phenyl]-5-[2,3-difluoro-4-[3-methyl-1-[2-oxo-2-(1H-pyrazol-4-ylamino)ethyl]pyrazol-4-yl]phenyl]-1-methyl-imidazole-2-carboxamide; formate] | 710
Cc1nn(CC(=O)Nc2cnn(C)c2)cc1-c1ccc(-c2cnc(C(=O)Nc3ccc(C(=O)N4CCN(C(=O)C5CC[N+](C)(C)CC5)CC4)c(Cl)c3)n2C)c(F)c1F [Example G12, N-[3-chloro-4-[4-(1,1-dimethylpiperidin-1-ium-4-carbonyl)piperazine-1-carbonyl]phenyl]-5-[2,3-difluoro-4-[3-methyl-1-[2-[(1-methylpyrazol-4-yl)amino]-2-oxo-ethyl]pyrazol-4-yl]phenyl]-1-methyl-imidazole-2-carboxamide; formate] | 450
Cc1nn(CC(=O)Nc2cccc(F)c2)cc1-c1ccc(-c2cnc(C(=O)Nc3ccc(C(=O)N4CCN(C(=O)C5CC[N+](C)(C)CC5)CC4)c(Cl)c3)n2C)c(F)c1F [Example G13, N-[3-chloro-4-[4-(1,1-dimethylpiperidin-1-ium-4-carbonyl)piperazine-1-carbonyl]phenyl]-5-[2,3-difluoro-4-[1-[2-(3-fluoroanilino)-2-oxo-ethyl]-3-methyl-pyrazol-4-yl]phenyl]-1-methyl-imidazole-2-carboxamide; chloride] | 130
Cc1nn(CC(=O)Nc2ccccn2)cc1-c1ccc(-c2cnc(C(=O)Nc3ccc(C(=O)N4CCN(C(=O)C5CC[N+](C)(C)CC5)CC4)c(Cl)c3)n2C)c(F)c1F [Example G14, N-[3-chloro-4-[4-(1,1-dimethylpiperidin-1-ium-4-carbonyl)piperazine-1-carbonyl]phenyl]-5-[2,3-difluoro-4-[3-methyl-1-[2-oxo-2-(2-pyridylamino)ethyl]pyrazol-4-yl]phenyl]-1-methyl-imidazole-2-carboxamide; formate] | 89
Cc1nn(CC(=O)Nc2ccc[n+](C)c2)cc1-c1ccc(-c2cnc(C(=O)Nc3ccc(C(=O)N4CCN(C(=O)C5CC[N+](C)(C)CC5)CC4)c(Cl)c3)n2C)c(F)c1F [Example G15, N-[3-chloro-4-[4-(1,1-dimethylpiperidin-1-ium-4-carbonyl)piperazine-1-carbonyl]phenyl]-5-[2,3-difluoro-4-[3-methyl-1-[2-[(1-methylpyridin-1-ium-3-yl)amino]-2-oxo-ethyl]pyrazol-4-yl]phenyl]-1-methyl-imidazole-2-carboxamide; diformate] | 300
Cc1nn(CC(=O)Nc2ncccn2)cc1-c1ccc(-c2cnc(C(=O)Nc3ccc(C(=O)N4CCN(C(=O)C5CC[N+](C)(C)CC5)CC4)c(Cl)c3)n2C)c(F)c1F [Example G16, N-[3-chloro-4-[4-(1,1-dimethylpiperidin-1-ium-4-carbonyl)piperazine-1-carbonyl]phenyl]-5-[2,3-difluoro-4-[3-methyl-1-[2-oxo-2-(pyrimidin-2-ylamino)ethyl]pyrazol-4-yl]phenyl]-1-methyl-imidazole-2-carboxamide; formate] | 1100
